In brackets after ≈: the same amount, converted by molar mass.
Experiments:
[1] = Solubility in simulated gastric and intestinal fluids; assay type: physicochemical; details: for Final pH: solubility test
Text: Solubility of compound Example No. 1 in simulated gastric and in simulated intestinal fluids at room temperature
Solubility of compound Example No. 3 (free form/acetate salt form) in simulated gastric fluids: […]

[2] = test system: Bone marrow cells from CBA mice; test: Bone marrow cell proliferation (BM) assay; assay type: cell-based; details: Mus musculus, 3H-thymidine incorporation, four days incubation
Procedure: Bone marrow cells from CBA mice (2.5×10^4 cells per well in flat bottom tissue culture microtiter plates) were incubated in 100 μL RPMI medium containing 10% FCS, 100 U/mL penicillin, 100 μg/mL streptomycin (Gibco BRL, Basel Switzerland), 50 μM 2-mercaptoethanol (Fluka, Buchs, Switzerland), WEHI-3 conditioned medium (7.5% v/v) and L929 conditioned medium (3% v/v) as a source of growth factors and serially diluted compounds. Seven three-fold dilution steps in duplicates per test compounds were performed. After four days of incubation 1 μCi ^3H-thymidine was added. Cells were harvested after an additional five-hour incubation period, and incorporated ^3H-thymidine was determined according to standard procedures. Conditioned media were prepared as follows. WEHI-3 cells (ATCC TIB68) and L929 cells (ATCC CCL 1) were grown in RPMI medium until confluence for 4 days and one week, respectively. Cells were harvested, resuspended in the same culture flasks in medium C containing 1% FCS (Schreier and Tess 1981) for WEHI-3 cells and RPMI medium for L929 cells and incubated for 2 days (WEHI-3) or one week (L929). The supernatant was collected, filtered through 0.2 μm and stored in aliquots at −80° C. Cultures without test compounds and without WEHI-3 and L929 supernatants were used as low control values. Low control values were subtracted from all values. […]

[3] = Chemical stability of amorphous and crystalline example No. 1 (solid state); assay type: physicochemical; details: for Purity: 1 week; for Initial Purity: before exposure
[4] = Chemical stability of the trihydrate of example 1; assay type: physicochemical
[5] = Blood levels and pharmacokinetics after oral administration of compound of example No. 1; assay type: in vivo, Beagle dogs; details: example 3 main component in blood after around an hour
Procedure: A single dose of the compound of example 1 (3.0 mg/kg) was administered p.o. to 3 male Beagle dogs. Compound 1 was dosed as an aqueous suspension of the crystalline monohydrate form in Methylcellulose (0.5%): Tween 80 (1%) (90:10). Blood was taken in regular intervals by venipuncture, and the samples were analyzed for a period of up to 24 hours. The compounds of the examples 1, 2, and 3 were quantitatively assessed over time, and the results are tabulated below:
Key pharmacokinetic parameters (mean values±standard deviations (n=3) for 1, 2 and 3 after oral dosing of example No. 1.

[6] = Physical stability: equilibration of suspension, XRPD of isolated solid; assay type: physicochemical; details: based upon the equilibration experiments
Procedure: Samples of example 1 free base which are a mixture of monohydrate and trihydrate were suspended in an organic solvent water mixture of water and equilibrated for about 4 days at 25°. […] After equilibration the suspension was filtered and the solid material isolated and analysed by XRPD.

Cc1cccc2c(C3=C(c4nc(N5CCNC6(CC6)C5)cc5ccccc45)C(=O)N(COP(=O)(O)O)C3=O)c[nH]c12 [Example 1, Phosphoric acid mono-[3-[3-(4,7-diaza-spiro[2.5]oct-7-yl)-isoquinolin-1-yl]-4-(7-methyl-1H-indol-3-yl)-2,5-dioxo-2,5-dihydro-pyrrol-1-ylmethyl]ester]
solubility ([1]; Fasted state simulated intestinal fluid (FaSSIF) pH 6.5, room temperature): 100 µg/mL (≈ 174 µM)
solubility ([1]; Fed state simulated intestinal fluid (FeSSIF) pH 5.8, room temperature): 130 µg/mL (≈ 227 µM)
solubility ([1]; Simulated gastric fluid (SGF) pH 2, room temperature): 40 µg/mL (≈ 69.7 µM)
Final pH ([1]; FaSSIF pH 6.5): 6.59
Final pH ([1]; FeSSIF pH 5.8): 6.05
Final pH ([1]; SGF pH 2): 2.22
IC50 [2]: 6740 ± 1120 nM
Purity ([3]; Amorphous, 50 ° C.): 95.8%
Purity ([3]; Amorphous, 80 ° C.): 89.7%
Initial Purity ([3]; Amorphous): 98.5%
Purity ([3]; Crystalline monohydrate, 50 ° C.): 100%
Purity ([3]; Crystalline monohydrate, 80 ° C.): 100%
Initial Purity ([3]; Crystalline monohydrate): 100%
Purity of example 1 in % ([4]; 2 weeks 50° C.): 95.57%
Sum of related. Substances in area % ([4]; 2 weeks 50° C.): 4.52 area %
Purity of example 1 in % ([4]; 2 weeks 50° C./75% RH): 96.20%
Sum of related. Substances in area % ([4]; 2 weeks 50° C./75% RH): 3.66 area %
Purity of example 1 in % ([4]; initial): 98.06%
Sum of related. Substances in area % ([4]; initial): 1.64 area %
conversion of prodrug into parent compound in blood [5]: effective and favorable conversion into a parent compound

Cc1cccc2c(C3=C(c4nc(N5CCNC6(CC6)C5)cc5ccccc45)C(=O)NC3=O)c[nH]c12 [Example 3, 3-[3-(4,7-diaza-spiro[2.5]oct-7-yl)-isoquinolin-1-yl]-4-(7-methyl-1H-indol-3-yl)-pyrrole-2,5-dione]
Final pH ([1]; Acetate Salt, FaSSIF pH 6.5): 3.97
Final pH ([1]; Acetate Salt, FeSSIF pH 5.8): 6.5
Final pH ([1]; Acetate Salt, SGF pH 2): 5.45
solubility ([1]; fasted state simulated intestinal fluid (FaSSIF), Acetate Salt, FaSSIF pH 6.5): 50 µg/mL
solubility ([1]; fed state simulated intestinal fluid (FeSSIF), Acetate Salt, FeSSIF pH 5.8): 550 µg/mL
solubility ([1]; simulated gastric fluid (SGF), simulated gastric fluid, Acetate Salt, SGF pH 2): 150 µg/mL
IC50 [2]: 1670 ± 256 nM

Cc1cccc2c(C3=C(c4nc(N5CCNC6(CC6)C5)cc5ccccc45)C(=O)N(COP(=O)(O)O)C3=O)c[nH]c12.O.O.O [trihydrate of example 1, phosphoric acid mono-[3-[3-(4,7-diaza-spiro[2.5]oct-7-yl)-isoquinolin-1-yl]-4-(7-methyl-1H-indol-3-yl)-2,5-dioxo-2,5-dihydro-pyrrol-1-ylmethyl]ester, trihydrate]
relative thermodynamic stability of hydrate forms [6]: thermodynamically more stable than the monohydrate
